According to patent US20170362283A1, “NISIN-BASED COMPOUNDS AND USE THEREOF IN THE TREATMENT OF BACTERIAL INFECTIONS” (UNIVERSITEIT UTRECHT HOLDING B.V., priority 2015, published 2017):
Converted amounts (≈) assume the structure as drawn. Like-named read-outs stand apart in the source and are kept apart here.

Assays:
B. subtilis = system: B. subtilis
Experimental: (§1) Determining the MIC value is a standard technique well known to the skilled person, in particular the MIC value can be measured using method M07-A9 (CLSI standard, January 2012, Vol. 32, No. 2, “Methods for Dilution Antimicrobial Susceptibility Tests for Bacteria That Grow Aerobically”).
(§2) Different microorganisms (from glycerol stock) were plated out on blood agar and incubated at 37° C. for 24 hours. A colony was selected and 2×5 mL of TSB was inoculated. The samples and a sterile control were cultured for 16-20 hours at 37° C. Comparative compound B is nisin acting as a control. […] Comparative compounds A, D and E are also control compounds not part of the present invention.
(§3) The overnight cultures were diluted to 0.5×10^6 CFU in TSB. 50 μL of the bacterial solution was added to each well and the plates were sealed with an adhesive membrane and incubated at 37° C. for 16 hours. The next day, the plates were visually inspected for bacterial growth.

E. coli = system: E. coli
Experimental: as §1, §2, §3

S. aureus = system: S. aureus
Experimental: as §1, §2, §3

M. luteus = format: cell-based
Experimental: as §1
(§4) Different microorganisms (from glycerol stock) were plated out on blood agar and incubated at 37° C. for 24 hours. A colony was selected and 2×5 mL of TSB was inoculated. The samples and a sterile control were cultured for 16-20 hours at 37° C. Comparative compound B is nisin acting as a control. Comparative compound C is vancomycin, also acting as a control. Comparative compounds A, D and E are also control compounds not part of the present invention.
as §3

VRE 155 = format: cell-based
Experimental: as §1, §4, §3

MRSA USA300 = format: cell-based, Staphylococcus aureus
Experimental: as §1, §4, §3

MRSA WKZ2 = format: cell-based, Staphylococcus aureus
Experimental: as §1, §4, §3

Serum stability = format: in vitro ADME; conditions: human serum, 37° C., after 24 hours; read-out: stability in human serum, remained intact
Experimental: 2 mg/mL peptide solutions were prepared in 26% DMSO in MilliQ. Duplicate samples were prepared with […] peptide solution and […] human serum, making the final DMSO concentration 2%. The samples were incubated at 37° C., and samples were taken at t=0, 1, 2, 4 and 24 hours as follows: to 100 μL serum solution, 200 μL MeOH (containing 0.075 mg/mL ethylparaben as an internal standard) was added to precipitate the proteins. The sample was vortexed briefly and allowed to stand for 10 min at RT. The samples were then centrifuged at 13,000 rpm for 5 min, and the supernatant was taken and stored at −20° C. until analysis. Each sample was analyzed by HPLC on a C4 column. The peaks were integrated and normalized to the internal standard.

Row | SMILES | MIC values B. subtilis (B. subtilis; duplicate experiments) [µg/mL] | MIC values E. coli (E. coli; duplicate experiments) [µg/mL] | MIC values S. aureus (S. aureus; duplicate experiments) [µg/mL] | MIC values M. luteus (M. luteus; duplicate experiments) [µg/mL] | MIC values VRE 155 (VRE 155; duplicate experiments) [µg/mL] | MIC values MRSA USA300 (MRSA USA300; duplicate experiments) [µg/mL] | MIC values MRSA WKZ2 (MRSA WKZ2; duplicate experiments) [µg/mL] | remaining at 24 h, 0.15 mg/mL (Serum stability) [%] | MIC values B. subtilis (B. subtilis) [µg/mL] | MIC values E. coli (E. coli) [µg/mL] | MIC values S. aureus (S. aureus) [µg/mL] | MIC values M. luteus (M. luteus) [µg/mL] | MIC values VRE 155 (VRE 155) [µg/mL] | MIC values MRSA USA300 (MRSA USA300; USA300) [µg/mL] | MIC values MRSA WKZ2 (MRSA WKZ2; WKZ2) [µg/mL]
1 | C=C1NC(=O)[C@H]([C@@H](C)CC)NC(=O)[C@H](NC(=O)C(=CC)NC(=O)[C@@H](N)[C@@H](C)CC)CSC[C@@H](C(=O)N[C@H]2C(=O)N3CCC[C@H]3C(=O)NCC(=O)N[C@H](C(=O)N[C@@H](CCCCN)C(=O)NCCCCCCCCCC)CS[C@H]2C)NC(=O)[C@H](CC(C)C)NC1=O [(6)] | 4 to 8 | 64 (≈ 49.6 µM) | 16 (≈ 12.4 µM) | 2 (≈ 1.55 µM) | 8 (≈ 6.2 µM) | 16 (≈ 12.4 µM) | 16 (≈ 12.4 µM) | 94 |  |  |  |  |  |  | 
2 | C=C1NC(=O)[C@H]([C@@H](C)CC)NC(=O)[C@H](NC(=O)C(=CC)NC(=O)[C@@H](N)[C@@H](C)CC)CSC[C@@H](C(=O)N[C@H]2C(=O)N3CCC[C@H]3C(=O)NCC(=O)N[C@H](C(=O)N[C@@H](CCCCN)C(=O)NC/C=C(\C)CC/C=C(\C)CCC=C(C)C)CS[C@H]2C)NC(=O)[C@H](CC(C)C)NC1=O [(12)] | 4 (≈ 2.95 µM) | >64 | 8 (≈ 5.91 µM) | 2 (≈ 1.48 µM) | 8 (≈ 5.91 µM) | 16 (≈ 11.8 µM) | 16 (≈ 11.8 µM) | > 50 |  |  |  |  |  |  | 
3 | C=C1NC(=O)[C@H]([C@@H](C)CC)NC(=O)[C@H](NC(=O)C(=CC)NC(=O)[C@@H](N)[C@@H](C)CC)CSC[C@@H](C(=O)N[C@H]2C(=O)N3CCC[C@H]3C(=O)NCC(=O)N[C@H](C(=O)N[C@@H](CCCCN)C(=O)NCCCn3cc(CCC(=O)NC/C=C(\C)CC/C=C(\C)CCC=C(C)C)nn3)CS[C@H]2C)NC(=O)[C@H](CC(C)C)NC1=O [Compound (24) with R1-group (d)] |  |  |  |  |  |  |  |  | 32 (≈ 20.9 µM) | >64 | 64 (≈ 41.7 µM) | 2 to 4 |  |  | 
4 | C=C1NC(=O)[C@H]([C@@H](C)CC)NC(=O)[C@H](NC(=O)C(=CC)NC(=O)[C@@H](N)[C@@H](C)CC)CSC[C@@H](C(=O)N[C@H]2C(=O)N3CCC[C@H]3C(=O)NCC(=O)N[C@H](C(=O)N[C@@H](CCCCN)C(=O)NCCCn3cc(CNC(=O)c4ccc(-c5ccc(-c6ccccc6)cc5)cc4)nn3)CS[C@H]2C)NC(=O)[C@H](CC(C)C)NC1=O [Compound (24) with R1-group (e)] |  |  |  |  |  |  |  |  | 4 (≈ 2.59 µM) | >64 | 8 (≈ 5.18 µM) | 2 (≈ 1.3 µM) | 8 (≈ 5.18 µM) | 8 (≈ 5.18 µM) | 8 (≈ 5.18 µM)
5 | C=C1NC(=O)[C@H]([C@@H](C)CC)NC(=O)[C@H](NC(=O)C(=CC)NC(=O)[C@@H](N)[C@@H](C)CC)CSC[C@@H](C(=O)N[C@H]2C(=O)N3CCC[C@H]3C(=O)NCC(=O)N[C@H](C(=O)N[C@@H](CCCCN)C(=O)O)CS[C@H]2C)NC(=O)[C@H](CC(C)C)NC1=O [Compound A, nisin [1-12], reference compound] | >128 | >128 | >128 | 8 to 16 | >128 | >128 | >128 |  |  |  |  |  |  |  | 
